Measured values taken from patent publication US20040028760A1, “Method of treating inflammation and inflammation-related pain” (Michigan State University, priority 2002, published 2004).
Values after ≈ are worked out from the molar mass of the structure shown. “Also recorded” adds a separate entry of the source. Read-outs that look alike come from different tables or passages of the source. Blank lines part the entries; values can stand above or below the molecule they belong to.

Columns and labels:
[1] = target: T1, human PGHS-II (COX-II) enzyme (Homo sapiens, UniProt P35354); assay: Cyclooxygenase inhibitory assay (initial rate of O2 uptake), COX-II; type: biochemical
T1 construct: made in house; host or cells: insect cells (lysates)
T1 sequence (P35354 18-604): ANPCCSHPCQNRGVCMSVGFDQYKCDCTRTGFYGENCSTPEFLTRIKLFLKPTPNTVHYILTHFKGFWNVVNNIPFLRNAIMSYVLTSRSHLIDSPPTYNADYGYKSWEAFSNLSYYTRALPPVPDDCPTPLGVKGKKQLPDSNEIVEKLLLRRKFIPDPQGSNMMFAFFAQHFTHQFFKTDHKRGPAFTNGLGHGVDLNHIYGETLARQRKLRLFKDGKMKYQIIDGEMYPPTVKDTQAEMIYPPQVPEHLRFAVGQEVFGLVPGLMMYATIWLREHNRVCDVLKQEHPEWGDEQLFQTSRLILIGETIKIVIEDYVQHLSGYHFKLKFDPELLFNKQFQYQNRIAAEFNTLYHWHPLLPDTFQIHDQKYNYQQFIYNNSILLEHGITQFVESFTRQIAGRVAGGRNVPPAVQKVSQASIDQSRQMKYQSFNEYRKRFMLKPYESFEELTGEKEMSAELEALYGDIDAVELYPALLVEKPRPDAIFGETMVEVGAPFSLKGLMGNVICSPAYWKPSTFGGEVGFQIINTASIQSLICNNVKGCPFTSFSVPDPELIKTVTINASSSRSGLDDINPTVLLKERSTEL
Protocol: (§1) Prostaglandin H synthase isozymes-I (PGHS-I or COX-I) was prepared from ram seminal vesicles. PGHS-II or COX-II enzyme for the assay was prepared from lysates of cloned insect cell with human PGHS-II enzyme. Each assay mixture contained 600 μL of 0.1 M Tris buffer (pH 7), 1 mM phenol, 17 μg hemoglobin and 10 μL of COX-I or 20-30 μL of COX-II enzymes. Crude extracts or pure compounds were preincubated with 25-100 μg mL^−1 in DMSO for 5-minutes with COX-I or COX-II enzymes in the assay chamber at 37° C. […] Instantaneous inhibition of the enzyme was determined by monitoring the initial rate of O2 uptake using an O2 electrode.

[2] = target: T2, prostaglandin H endoperoxide synthase-I (COX-I) (Ovis aries, UniProt P05979); assay: Cyclooxygenase inhibitory assay (initial rate of O2 uptake), COX-I; type: biochemical, ram; conditions: for inhibition at 100 µg/mL: read-out: COX-I inhibitory activity
T2 construct: was prepared from ram seminal vesicles; from tissue; host or cells: ram seminal vesicles
T2 sequence (P05979 25-600): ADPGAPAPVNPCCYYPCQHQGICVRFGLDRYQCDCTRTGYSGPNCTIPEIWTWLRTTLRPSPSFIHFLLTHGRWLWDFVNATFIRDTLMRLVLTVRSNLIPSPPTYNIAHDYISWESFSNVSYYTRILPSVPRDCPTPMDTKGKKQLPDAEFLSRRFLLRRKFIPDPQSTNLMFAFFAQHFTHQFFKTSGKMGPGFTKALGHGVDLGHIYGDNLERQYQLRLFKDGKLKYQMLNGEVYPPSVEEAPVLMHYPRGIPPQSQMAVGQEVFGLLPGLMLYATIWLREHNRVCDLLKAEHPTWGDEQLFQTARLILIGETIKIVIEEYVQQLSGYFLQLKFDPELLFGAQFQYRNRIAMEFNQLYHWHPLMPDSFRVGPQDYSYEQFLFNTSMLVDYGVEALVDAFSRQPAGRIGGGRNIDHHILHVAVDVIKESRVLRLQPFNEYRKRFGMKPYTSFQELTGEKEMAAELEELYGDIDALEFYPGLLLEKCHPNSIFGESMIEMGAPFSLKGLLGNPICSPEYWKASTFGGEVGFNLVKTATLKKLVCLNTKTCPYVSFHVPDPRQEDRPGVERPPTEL
Protocol: as §1

cyclooxygenase = target: T3, cyclooxygenase; type: biochemical
T3 construct: "prepared from ram seminal vesicles"
Protocol: as §1

COX-II = target: T4, COX-II (Ovis aries, UniProt P79208); conditions: less than 500 μM; cited from earlier work
T4 sequence (P79208 17-603): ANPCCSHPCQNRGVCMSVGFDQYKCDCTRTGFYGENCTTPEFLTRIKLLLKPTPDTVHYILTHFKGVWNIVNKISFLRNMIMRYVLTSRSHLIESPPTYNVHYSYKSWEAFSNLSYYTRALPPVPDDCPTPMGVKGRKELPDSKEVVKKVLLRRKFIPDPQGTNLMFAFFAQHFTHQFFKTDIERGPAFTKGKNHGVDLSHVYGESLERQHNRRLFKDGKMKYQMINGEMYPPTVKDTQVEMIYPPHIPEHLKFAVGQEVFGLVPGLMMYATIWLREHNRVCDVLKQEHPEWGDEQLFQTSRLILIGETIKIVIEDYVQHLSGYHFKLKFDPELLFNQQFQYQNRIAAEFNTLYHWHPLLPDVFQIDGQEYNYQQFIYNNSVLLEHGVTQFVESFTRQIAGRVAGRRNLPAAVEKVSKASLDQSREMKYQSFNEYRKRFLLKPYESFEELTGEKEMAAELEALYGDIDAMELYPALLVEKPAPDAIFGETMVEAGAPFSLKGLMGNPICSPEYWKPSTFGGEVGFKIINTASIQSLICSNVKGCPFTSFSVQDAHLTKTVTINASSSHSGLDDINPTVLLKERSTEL

COX-I = conditions: less than 500 μM; cited from earlier work
[3] = 100 μg mL^−1, compared to solvent control

Structure (SMILES): COc1cc(OC)c(OC)cc1C=O [Compound 1, 2,4,5-trimethoxybenzaldehyde]
- inhibition at 25 µg/mL ([1]; 25 μg mL^−1): > 30%
- inhibition at 100 µg/mL ([1]; 100 μg mL^−1): 52.7%
- selectivity towards COX-II enzyme inhibition (in words) ([1]; 100 μg mL^−1, COX-II versus COX-I): selectivity towards COX-II enzyme inhibition; also recorded: selective inhibition of COX-II enzyme
- COX-II/COX-I ratio [1, 3]: 17.68
- inhibition at 100 µg/mL [2]: 3.32%

- IC50 values (cyclooxygenase): 2.52 µg/mL (≈ 12.2 µM)
Structure (SMILES): CC(C)Cc1ccc(C(C)C(=O)O)cc1 (stereo not drawn) [Ibuprofen]

- inhibition at 100 µg/mL ([1]; 100 μg mL^−1): 68.4%
- COX-II/COX-I ratio [1, 3]: 1.51
- inhibition at 100 µg/mL ([2]; 100 μg mL^−1): 45.3%
Structure (SMILES): CCCCCCCC/C=C\CCCCCCCC(=O)O [Compound 2, oleic acid]
- COX-II inhibition (in words) (COX-II): not COX-I or COX-II inhibitory
- COX-I inhibition (in words) (COX-I): not COX-I or COX-II inhibitory

Structure (SMILES): COc1cc(OC)c(OC)cc1C=O [Synthetic 2,4,5-trimethoxybenzaldehyde, 2,4,5-trimethoxybenzaldehyde, reference compound]
- COX-II inhibition of commercial synthetic sample versus natural product (in words) ([1]; 25-100 μg mL^−1): slightly lower COX-II activity than natural form

Structure (SMILES): C/C=C/c1cc(OC)c(OC)cc1OC [Compound 3, trans-asarone]
- COX-II inhibitory activity ([1]; 100 μg mL^−1): 64.39%
- COX-II/COX-I ratio [1, 3]: 1.4
- COX-I inhibitory activity ([2]; 100 μg mL^−1): 46.15%

Structure (SMILES): COc1ccc2cc([C@H](C)C(=O)O)ccc2c1 [Naproxen, reference compound]
- COX-II/COX-I ratio [1]: 0.92
- IC50 values (cyclooxygenase; concentration at which the reference drug was assayed, isozyme not stated): 2.06 µg/mL (≈ 8.95 µM)

- COX-II inhibition (result in words) ([1]; 100 μg mL^−1): didn't exhibit any inhibition
- COX-I inhibition (result in words) ([2]; 100 μg mL^−1): didn't exhibit any inhibition
Structure (SMILES): COc1cc(OC)c(C(=O)O)cc1OC [2,4,5-trimethoxybenzoicacid, reference compound]

- inhibition at 100 µg/mL ([1]; 100 μg mL^−1): 0%
- inhibition at 100 µg/mL ([2]; 100 μg mL^−1): 3.15%
Structure (SMILES): CC(C)=CCC/C(C)=C/CO [Compound 4, geraniol]
- COX-II inhibition (result in words) ([1]; 100 μg mL^−1): not active; also recorded: did not inhibit
- COX-I inhibition (result in words) ([2]; 100 μg mL^−1): not active; also recorded: did not inhibit

Structure (SMILES): CS(=O)(=O)c1ccc(C2=C(c3ccccc3)C(=O)OC2)cc1 [Vioxx, reference compound]
- COX-II/COX-I ratio [1]: 75
